Test results from US9745360B2 (Sanofi, priority 2012, dated 2017).
≈ marks a conversion by molar mass, not a printed value. Where two headings read alike, the source gives them in different places. *1 amine or outer side, *2 acyl side, *3 side chain or, on linkers, in order; H or OH if unused. Where a SMILES comes first, the peptide text is derived from it. Side-chain parts run from the residue outwards. [ ]: non-standard residue; d: D form. The star is where a group is joined. γGlu = O=C(O)[C@H](CCC(=O)[*:2])N[*:1]; Stearoyl = CCCCCCCCCCCCCCCCCC(=O)*; Palmitoyl = CCCCCCCCCCCCCCCC(=O)*; d(αMeK) = C[C@@](N)(CCCCN)C(=O)O; αMeOrn = C[C@](N)(CCCN)C(=O)O; αMeK = C[C@](N)(CCCCN)C(=O)O; Api = NC1(C(=O)O)CCNCC1; Aib = CC(C)(N)C(=O)O

Experiments:
[1] = Chemical stability in solution, 7 days at 25° C., % remaining peptide; assay type: physicochemical; conditions: % remaining peptide after 7 days at 25° C.
Description: The chemical stability is expressed as “% remaining peptide”.
(§1) Solubility and chemical stability of peptidic compounds were assessed as described in Methods.

[2] = molecular target: T1, human GIP receptor (hGIP R) (Homo sapiens, UniProt P48546); test: cAMP response (HTRF) of HEK-293 cells stably expressing human GIP receptor; assay type: cell-based; conditions: Table 7; cAMP formation
T1 construct: expressed in transfected cells
T1 sequence (P48546 22-466): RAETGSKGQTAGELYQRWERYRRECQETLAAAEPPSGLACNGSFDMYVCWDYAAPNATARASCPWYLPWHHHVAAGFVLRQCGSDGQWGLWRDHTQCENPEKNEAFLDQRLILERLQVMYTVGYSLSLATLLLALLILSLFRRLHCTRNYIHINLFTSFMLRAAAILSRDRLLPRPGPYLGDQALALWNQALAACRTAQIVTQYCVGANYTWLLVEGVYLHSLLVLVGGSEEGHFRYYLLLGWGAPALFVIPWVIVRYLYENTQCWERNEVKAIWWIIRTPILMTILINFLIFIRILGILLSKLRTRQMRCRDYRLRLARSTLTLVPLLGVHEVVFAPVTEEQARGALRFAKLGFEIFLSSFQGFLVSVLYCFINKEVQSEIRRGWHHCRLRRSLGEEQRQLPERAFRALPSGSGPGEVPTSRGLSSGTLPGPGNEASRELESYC
Description: (§2) cAMP content of cells was determined using a kit from Cisbio Corp. (cat. no. 62AM4PEC) based on HTRF (Homogenous Time Resolved Fluorescence). For preparation, cells were split into T175 culture flasks and grown overnight to near confluency in medium (DMEM/10% FBS). Medium was then removed and cells washed with PBS lacking calcium and magnesium, followed by proteinase treatment with accutase (Sigma-Aldrich cat. no. A6964). Detached cells were washed and resuspended in assay buffer (1×HBSS; 20 mM HEPES, 0.1% BSA, 2 mM IBMX) and cellular density determined. They were then diluted to 400000 cells/ml and 25 μl-aliquots dispensed into the wells of 96-well plates. For measurement, 25 μl of test compound in assay buffer was added to the wells, followed by incubation for 30 minutes at room temperature.

[3] = Solubility testing in buffer, HPLC-UV of supernatant; assay type: physicochemical; conditions: target concentration 1.0 mg/mL; for solubility at 2 h: buffer
Description: as §1

[4] = molecular target: T2, human GLP-1 receptor (hGLP-1 R) (Homo sapiens, UniProt P43220); test: cAMP response (HTRF) of HEK-293 cells stably expressing human GLP-1 receptor; assay type: cell-based; conditions: Table 7; cAMP formation
T2 construct: expressed in transfected cells
T2 sequence (P43220 24-463): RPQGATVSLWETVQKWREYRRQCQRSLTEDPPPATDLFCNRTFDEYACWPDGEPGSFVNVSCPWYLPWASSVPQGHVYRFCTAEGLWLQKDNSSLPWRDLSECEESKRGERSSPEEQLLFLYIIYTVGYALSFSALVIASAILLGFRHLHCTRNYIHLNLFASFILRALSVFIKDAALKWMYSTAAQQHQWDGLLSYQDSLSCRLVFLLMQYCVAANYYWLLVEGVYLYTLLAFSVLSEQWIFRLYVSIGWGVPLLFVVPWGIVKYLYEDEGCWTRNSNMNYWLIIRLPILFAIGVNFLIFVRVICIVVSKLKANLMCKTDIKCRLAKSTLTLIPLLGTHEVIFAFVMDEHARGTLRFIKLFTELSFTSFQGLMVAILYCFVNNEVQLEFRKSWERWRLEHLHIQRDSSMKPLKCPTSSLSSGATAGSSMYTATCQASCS
Description: as §2

[5] = system: non-fasted female diabetic dbdb-mice; test: Glucose lowering in non-fasted female diabetic dbdb-mice; assay type: in vivo; conditions: 3 μg/kg s.c., at 240 min, kept to 480 min, baseline 20-22 mmol/l
Description: Female diabetic dbdb-mice of mean non-fasted glucose value of 20-22 mmol/l and a body weight of 42 g+/−0.6 g (SEM) were used. Mice were individually marked and were adapted to housing conditions for at least one week.
3-5 days prior to study start mice were assigned to groups and cages (4 mice per cage, 8 per group, control group 16) according to their non-fasted glucose values to ensure even distribution of lower and higher values between groups (stratification). On the study day, mice were weighed and dosed (t=0). Immediately prior to compound administration feed was removed while water remained available, and a first blood sample at a tail incision was drawn (baseline). Further blood samples were drawn at the tail incision at 30, 60, 90, 120, 240, 360, and 480 min.
Statistical analyses are performed with Everstat Version 6.0 based on SAS by 2-way-ANOVA on repeated measures, followed by Dunnett's post-hoc test against vehicle-control. Differences are considered statistically significant at the p<0.05 level.

[6] = pH 4.5, read-out: Solubility (pH 4.5)
[7] = pH 7.4, read-out: Solubility (pH 7.4)

| SMILES | Stability (pH 4.5) [1] | Stability (pH 7.4) [1] | EC50 [2] | EC50 [4] | also measured |
| --- | --- | --- | --- | --- | --- |
| CCCCCCCCCCCCCCCC(=O)N[C@@H](CCC(=O)NCCCC[C@H](NC(=O)[C@H](CCC(N)=O)NC(=O)[C@@H](NC(=O)[C@H](CO)NC(=O)[C@H](CC(C)C)NC(=O)[C@H](CC(=O)O)NC(=O)[C@H](CO)NC(=O)[C@@H](NC(=O)[C@H](Cc1ccccc1)NC(=O)[C@@H](NC(=O)CNC(=O)[C@H](CCC(=O)O)NC(=O)C(C)(C)NC(=O)[C@@H](N)Cc1ccc(O)cc1)[C@@H](C)O)[C@@H](C)O)[C@@H](C)CC)C(=O)N[C@@H](CCC(=O)O)C(=O)N[C@@H](CCC(=O)O)C(=O)N[C@@H](CCCNC(=N)N)C(=O)N[C@@H](C)C(=O)N[C@@H](C)C(=O)NC1(C(=O)N[C@@H](CCC(=O)O)C(=O)N[C@@H](Cc2ccccc2)C(=O)N[C@H](C(=O)N[C@@H](CCC(=O)O)C(=O)N[C@@H](Cc2c[nH]c3ccccc23)C(=O)N[C@@H](CC(C)C)C(=O)N[C@@H](CCCCN)C(=O)N[C@@H](CC(N)=O)C(=O)N[C@H](C(=O)NCC(=O)N2CCC[C@H]2C(=O)N[C@@H](CO)C(=O)N[C@@H](CO)C(=O)NCC(=O)N[C@@H](C)C(=O)N2CCC[C@H]2C(=O)N2CCC[C@H]2C(=O)N2CCC[C@H]2C(=O)N[C@@H](CO)C(N)=O)[C@@H](C)O)[C@@H](C)CC)CCNCC1)C(=O)O [SEQ ID NO: 8, Y-Aib-E-G-T-F-T-S-D-L-S-I-Q-K(γE-x53)-E-E-R-A-A-Pip-E-F-I-E-W-L-K-N-T-G-P-S-S-G-A-P-P-P-S-NH2] (H-Y[Aib]EGTFTSDLSIQK([γGlu-Palmitoyl])EERAA[Api]EFIEWLKNTGPSSGAPPPS-NH2) | 93.0% | 93.0% | 0.0163 nM |  | solubility [3, 6]: > 1000 µg/mL; solubility [3, 7]: > 1000 µg/mL |
| CCCCCCCCCCCCCCCC(=O)N[C@@H](CCC(=O)NCCCC[C@H](NC(=O)[C@H](CCC(N)=O)NC(=O)[C@@H](NC(=O)[C@H](CO)NC(=O)[C@H](CC(C)C)NC(=O)[C@H](CC(=O)O)NC(=O)[C@H](CO)NC(=O)[C@@H](NC(=O)[C@H](Cc1ccccc1)NC(=O)[C@@H](NC(=O)CNC(=O)[C@H](CCC(=O)O)NC(=O)C(C)(C)NC(=O)[C@@H](N)Cc1ccc(O)cc1)[C@@H](C)O)[C@@H](C)O)[C@@H](C)CC)C(=O)N[C@@H](CCC(=O)O)C(=O)N[C@@H](CCC(=O)O)C(=O)N[C@@H](CCCNC(=N)N)C(=O)N[C@@H](C)C(=O)N[C@@H](C)C(=O)N[C@@](C)(CCCN)C(=O)N[C@@H](CCC(=O)O)C(=O)N[C@@H](Cc1ccccc1)C(=O)N[C@H](C(=O)N[C@@H](CCC(=O)O)C(=O)N[C@@H](Cc1c[nH]c2ccccc12)C(=O)N[C@@H](CC(C)C)C(=O)N[C@@H](CCCCN)C(=O)N[C@@H](CC(N)=O)C(=O)N[C@H](C(=O)NCC(=O)N1CCC[C@H]1C(=O)N[C@@H](CO)C(=O)N[C@@H](CO)C(=O)NCC(=O)N[C@@H](C)C(=O)N1CCC[C@H]1C(=O)N1CCC[C@H]1C(=O)N1CCC[C@H]1C(=O)N[C@@H](CO)C(N)=O)[C@@H](C)O)[C@@H](C)CC)C(=O)O [SEQ ID NO: 10, Y-Aib-E-G-T-F-T-S-D-L-S-I-Q-K(γE-x53)-E-E-R-A-A-(S)MeOrn-E-F-I-E-W-L-K-N-T-G-P-S-S-G-A-P-P-P-S-NH2] (H-Y[Aib]EGTFTSDLSIQK([γGlu-Palmitoyl])EERAA[αMeOrn]EFIEWLKNTGPSSGAPPPS-NH2) |  |  | 0.0071 nM | 4.9 pM |  |
| CCCCCCCCCCCCCCCCCC(=O)N[C@@H](CCC(=O)NCCCC[C@H](NC(=O)[C@H](CCC(N)=O)NC(=O)[C@H](CCCCN)NC(=O)[C@H](CO)NC(=O)[C@H](CC(C)C)NC(=O)[C@H](CC(=O)O)NC(=O)[C@H](CO)NC(=O)[C@@H](NC(=O)[C@H](Cc1ccccc1)NC(=O)[C@@H](NC(=O)CNC(=O)[C@H](CCC(N)=O)NC(=O)C(C)(C)NC(=O)[C@@H](N)Cc1ccc(O)cc1)[C@@H](C)O)[C@@H](C)O)C(=O)N[C@@H](CC(=O)O)C(=O)N[C@@H](CCC(=O)O)C(=O)N[C@@H](CCC(N)=O)C(=O)N[C@@H](CCCNC(=N)N)C(=O)N[C@@H](C)C(=O)N[C@@](C)(CCCCN)C(=O)N[C@@H](CCC(=O)O)C(=O)N[C@@H](Cc1ccccc1)C(=O)N[C@H](C(=O)N[C@@H](CCC(=O)O)C(=O)N[C@@H](Cc1c[nH]c2ccccc12)C(=O)N[C@@H](CC(C)C)C(=O)N[C@@H](CCCCN)C(=O)N[C@@H](CO)C(=O)NCC(=O)NCC(=O)N1CCC[C@H]1C(=O)N[C@@H](CO)C(=O)N[C@@H](CO)C(=O)NCC(=O)N[C@@H](C)C(=O)N1CCC[C@H]1C(=O)N1CCC[C@H]1C(=O)N1CCC[C@H]1C(=O)N[C@@H](CO)C(N)=O)[C@@H](C)CC)C(=O)O [SEQ ID NO: 12, Y-Aib-Q-G-T-F-T-S-D-L-S-K-Q-K(γE-x70)-D-E-Q-R-A-(S)MeLys-E-F-I-E-W-L-K-S-G-G-P-S-S-G-A-P-P-P-S-NH2] | 98.0% | 91.0% |  |  | maximal effect, glucose reduction [5]: ~11 mmol/L; solubility at 2 h [3, 6]: > 1000 µg/mL; solubility at 2 h [3, 7]: 983 µg/mL (≈ 211 µM) |
| CCCCCCCCCCCCCCCCCC(=O)N[C@@H](CCC(=O)NCCCC[C@H](NC(=O)[C@H](CCC(N)=O)NC(=O)[C@@H](NC(=O)[C@H](CO)NC(=O)[C@H](CC(C)C)NC(=O)[C@H](CC(=O)O)NC(=O)[C@H](CO)NC(=O)[C@@H](NC(=O)[C@H](Cc1ccccc1)NC(=O)[C@@H](NC(=O)CNC(=O)[C@H](CCC(N)=O)NC(=O)C(C)(C)NC(=O)[C@@H](N)Cc1ccc(O)cc1)[C@@H](C)O)[C@@H](C)O)[C@@H](C)CC)C(=O)N[C@@H](CC(=O)O)C(=O)N[C@@H](CCC(=O)O)C(=O)N[C@@H](CCC(N)=O)C(=O)N[C@@H](CCCNC(=N)N)C(=O)N[C@@H](C)C(=O)N[C@](C)(CCCCN)C(=O)N[C@@H](CCC(=O)O)C(=O)N[C@@H](Cc1ccccc1)C(=O)N[C@H](C(=O)N[C@@H](CCC(=O)O)C(=O)N[C@@H](Cc1c[nH]c2ccccc12)C(=O)N[C@@H](CC(C)C)C(=O)N[C@@H](CCCCN)C(=O)N[C@@H](CO)C(=O)NCC(=O)NCC(=O)N1CCC[C@H]1C(=O)N[C@@H](CO)C(=O)N[C@@H](CO)C(=O)NCC(=O)N[C@@H](C)C(=O)N1CCC[C@H]1C(=O)N1CCC[C@H]1C(=O)N1CCC[C@H]1C(=O)N[C@@H](CO)C(N)=O)[C@@H](C)CC)C(=O)O [SEQ ID NO: 13, Y-Aib-Q-G-T-F-T-S-D-L-S-I-Q-K(γE-x70)-D-E-Q-R-A-(R)MeLys-E-F-I-E-W-L-K-S-G-G-P-S-S-G-A-P-P-P-S-NH2] (H-Y[Aib]QGTFTSDLSIQK([γGlu-Stearoyl])DEQRA[d(αMeK)]EFIEWLKSGGPSSGAPPPS-NH2) |  |  |  | 13.6 pM |  |
| CCCCCCCCCCCCCCCCCC(=O)N[C@@H](CCC(=O)NCCCC[C@H](NC(=O)[C@H](CCC(N)=O)NC(=O)[C@@H](NC(=O)[C@H](CO)NC(=O)[C@H](CC(C)C)NC(=O)[C@H](CC(=O)O)NC(=O)[C@H](CO)NC(=O)[C@@H](NC(=O)[C@H](Cc1ccccc1)NC(=O)[C@@H](NC(=O)CNC(=O)[C@H](CCC(=O)O)NC(=O)C(C)(C)NC(=O)[C@@H](N)Cc1ccc(O)cc1)[C@@H](C)O)[C@@H](C)O)[C@@H](C)CC)C(=O)N[C@@H](CC(=O)O)C(=O)N[C@@H](CCC(=O)O)C(=O)N[C@@H](CCCNC(=N)N)C(=O)N[C@@H](C)C(=O)N[C@@H](C)C(=O)N[C@@](C)(CCCCN)C(=O)N[C@@H](CCC(=O)O)C(=O)N[C@@H](Cc1ccccc1)C(=O)N[C@H](C(=O)N[C@@H](CCC(=O)O)C(=O)N[C@@H](Cc1c[nH]c2ccccc12)C(=O)N[C@@H](CC(C)C)C(=O)N[C@@H](CCCCN)C(=O)N[C@@H](CC(N)=O)C(=O)N[C@H](C(=O)NCC(=O)N1CCC[C@H]1C(=O)N[C@@H](CO)C(=O)N[C@@H](CO)C(=O)NCC(=O)N[C@@H](C)C(=O)N1CCC[C@H]1C(=O)N1CCC[C@H]1C(=O)N1CCC[C@H]1C(=O)N[C@@H](CO)C(N)=O)[C@@H](C)O)[C@@H](C)CC)C(=O)O [SEQ ID NO: 14, Y-Aib-E-G-T-F-T-S-D-L-S-I-Q-K(γE-x70)-D-E-R-A-A-(S)MeLys-E-F-I-E-W-L-K-N-T-G-P-S-S-G-A-P-P-P-S-NH2] (H-Y[Aib]EGTFTSDLSIQK([γGlu-Stearoyl])DERAA[αMeK]EFIEWLKNTGPSSGAPPPS-NH2) |  |  |  | 7.2 pM |  |
